This note sets out measurements from ChEMBL document CHEMBL1201862, “PubChem BioAssay data set” (2004).

Test systems include NCI-H460; OVCAR-3; CAKI-1; HOP-92; BT-549; KM12; UACC-257; A549; PC-3; UO-31; HCC 2998; CCRF-CEM; SR; DU-145; Hs-578T; NCI-H226; SK-MEL-28; RPMI-8226; EKVX; HT-29.
Test in all cases: NCI anticancer screen, dose series, 48 h

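Cultured in 96-well plates, cells were exposed to test compound for 48 hours across five concentrations. Here, GI50 denotes the concentration required for 50% inhibition of growth.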 The source made the active and inactive calls. Cut-off read from the data, not from the text of the source: active = GI50 up to about 1.1 µM and inactive = higher. A value given as a limit tells only on which side of the number the result lay.

As to `C=CCN1C(=O)/C(=C/c2ccccc2)N=C1SC/C=C/C`, the GI50 with NCI-H460 was 43.8 µM (inactive); with OVCAR-3 it was > 100 µM (inactive); in the experiment on CAKI-1, > 100 µM (inactive); in the experiment with HOP-92 it was 12.2 µM (inactive); in the experiment on BT-549 it was 51.3 µM (inactive); in the experiment on KM12, 37.4 µM (inactive). Moreover, the GI50 is 28.3 µM (inactive) in the experiment with UACC-257; 39.3 µM (inactive) in the experiment with A549; 22.3 µM (inactive) in the experiment with PC-3; 39.9 µM (inactive) in the experiment on UO-31; 28.3 µM (inactive) in the experiment with HCC 2998; 27.9 µM (inactive) with CCRF-CEM. In addition, the GI50 was 6.67 µM (inactive) in the experiment with SR; 57.5 µM (inactive) in the experiment on DU-145; 69.5 µM (inactive) in the experiment with Hs-578T; 31.8 µM (inactive) with NCI-H226; 69.3 µM (inactive) with SK-MEL-28; 15.7 µM (inactive) in the experiment with RPMI-8226.

`CCOC(=O)/C(C#N)=C/c1ccnc2ccccc12`: the GI50 in the experiment with NCI-H460 is > 100 µM (inactive); in the experiment on OVCAR-3, 53.7 µM (inactive); in the experiment on CAKI-1, > 100 µM (inactive); with HOP-92, 40.2 µM (inactive); with BT-549 it was 50.5 µM (inactive); in the experiment with KM12, 32.5 µM (inactive). Moreover, the GI50 in the experiment with UACC-257 is > 100 µM (inactive); in the experiment with A549, > 100 µM (inactive); in the experiment with PC-3, 36.9 µM (inactive); with HCC 2998, > 100 µM (inactive); in the experiment on SR it was 2.28 µM (inactive); in the experiment with DU-145 it was > 100 µM (inactive). Moreover, the GI50 is > 100 µM (inactive) with EKVX; > 100 µM (inactive) with Hs-578T; > 100 µM (inactive) in the experiment on HT-29; > 100 µM (inactive) in the experiment on NCI-H226; 88.5 µM (inactive) in the experiment with SK-MEL-28; 25.4 µM (inactive) in the experiment on RPMI-8226.

`Cc1ccc(N(C=O)c2c([N+](=O)[O-])cc([N+](=O)[O-])c3c2=[N+]([O-])CN=3)cc1`: the GI50 in the experiment on NCI-H460 is > 100 µM (inactive); in the experiment on OVCAR-3, 24.2 µM (inactive); with CAKI-1, 32.3 µM (inactive); in the experiment on HOP-92, 16.2 µM (inactive); in the experiment with BT-549, 18.7 µM (inactive); in the experiment on KM12, 43.8 µM (inactive). Moreover, the GI50 with UACC-257 is 21 µM (inactive); in the experiment on A549, > 100 µM (inactive); in the experiment with PC-3 it was 20.4 µM (inactive); in the experiment on UO-31, 29.3 µM (inactive); in the experiment with HCC 2998, 14 µM (inactive); in the experiment with SR, 24.9 µM (inactive). Further, the GI50 in the experiment on DU-145 is 27.2 µM (inactive); in the experiment with EKVX, > 100 µM (inactive); in the experiment on Hs-578T, 29 µM (inactive); with HT-29, 49 µM (inactive); with NCI-H226 it was > 100 µM (inactive); in the experiment with SK-MEL-28, 49.4 µM (inactive). Moreover, the GI50 with RPMI-8226 is 20.7 µM (inactive).

Turning to `Cc1nc(-c2cc3cc(Cl)ccc3oc2=O)cc2c1c(=O)oc1ccc(Cl)cc12`, the GI50 with NCI-H460, in the experiment on OVCAR-3, with HOP-92, in the experiment on BT-549, in the experiment with KM12 and in the experiment on UACC-257 was > 100 µM (inactive) each time. The GI50 in the experiment on A549, with PC-3, in the experiment on UO-31, with HCC 2998, in the experiment on CCRF-CEM and with SR was > 100 µM (inactive) in each case. Further, the GI50 in the experiment with DU-145 is > 100 µM (inactive); in the experiment with EKVX, > 100 µM (inactive); in the experiment on Hs-578T, 72.3 µM (inactive); in the experiment with HT-29 it was > 100 µM (inactive); with NCI-H226 it was > 100 µM (inactive); in the experiment on SK-MEL-28, > 100 µM (inactive). Besides, in the experiment with RPMI-8226, the GI50 was > 100 µM (inactive).

On to `O=C(/C=C\c1ccsc1)c1ccccc1`, for which the GI50 was 11.4 µM (inactive) in the experiment on NCI-H460; 14.7 µM (inactive) with OVCAR-3; 3.71 µM (inactive) in the experiment on CAKI-1; 17.6 µM (inactive) with HOP-92; 12.6 µM (inactive) with BT-549; 2.97 µM (inactive) in the experiment on KM12. In addition, the GI50 in the experiment on UACC-257 was 16.6 µM (inactive); with PC-3 it was 11.1 µM (inactive); with UO-31, 7.1 µM (inactive); in the experiment with HCC 2998, 9.44 µM (inactive); with SR, 2.38 µM (inactive); in the experiment with DU-145, 12.8 µM (inactive). Moreover, the GI50 in the experiment on EKVX was 12.9 µM (inactive); with Hs-578T, 5.35 µM (inactive); in the experiment with HT-29, 4.06 µM (inactive); in the experiment with NCI-H226, 16.5 µM (inactive); in the experiment on SK-MEL-28 it was 12.4 µM (inactive); in the experiment with RPMI-8226, 2.22 µM (inactive).

`O=c1[nH]cnc2c1ncn2C1SC(CO)C(O)C1O` (stereo unspecified): the GI50 in the experiment on NCI-H460, in the experiment on OVCAR-3, in the experiment on CAKI-1, in the experiment with HOP-92, in the experiment with BT-549 and in the experiment with KM12 was > 100 µM (inactive) each time. Further, the GI50 with UACC-257, in the experiment with A549, in the experiment with PC-3, in the experiment on UO-31, in the experiment with HCC 2998 and with CCRF-CEM was > 100 µM (inactive) in each case. The GI50 with SR, with DU-145, in the experiment on EKVX, in the experiment on Hs-578T, with HT-29 and in the experiment on NCI-H226 was > 100 µM (inactive) in each case. The GI50 in the experiment with SK-MEL-28 and with RPMI-8226 was > 100 µM (inactive) throughout.

Regarding `CCOC(=O)[C@@H]1C[C@@H]1c1ccc(O)c(O)c1`, the GI50 was 58.9 µM (inactive) in the experiment with NCI-H460; 16.6 µM (inactive) with OVCAR-3; 38.1 µM (inactive) in the experiment with CAKI-1; 36.7 µM (inactive) in the experiment with HOP-92; 19.7 µM (inactive) with BT-549; 26 µM (inactive) with KM12. The GI50 with UACC-257 is 39.2 µM (inactive); in the experiment with A549, 29.4 µM (inactive); in the experiment with PC-3, 12.7 µM (inactive); in the experiment with UO-31, 10.7 µM (inactive); in the experiment on HCC 2998, 24.9 µM (inactive); with SR it was 14.5 µM (inactive). The GI50 in the experiment on DU-145 is 64 µM (inactive); with EKVX, 38.6 µM (inactive); in the experiment with Hs-578T, 43.1 µM (inactive); in the experiment on HT-29, 50.2 µM (inactive); in the experiment on NCI-H226, 22.5 µM (inactive); with SK-MEL-28 it was 30.8 µM (inactive). In addition, the GI50 in the experiment on RPMI-8226 is 18.1 µM (inactive).

Take `CC1C(NNc2ccccc2)Oc2cc3c(cc2C1c1ccccc1O)OCO3` (stereo unspecified): the GI50 with NCI-H460 is 2.81 µM (inactive); with OVCAR-3, 11.8 µM (inactive); in the experiment on CAKI-1 it was 0.962 µM (active); with HOP-92 it was 13.5 µM (inactive); in the experiment with BT-549, 14.2 µM (inactive); in the experiment on KM12, 0.741 µM (active). The GI50 is 6.89 µM (inactive) with UACC-257; 2.93 µM (inactive) in the experiment on A549; 3.2 µM (inactive) in the experiment with PC-3; 1.59 µM (inactive) in the experiment on UO-31; 4.56 µM (inactive) in the experiment with HCC 2998; 1.4 µM (inactive) with CCRF-CEM. The GI50 is 0.284 µM (active) with SR; 3.89 µM (inactive) with DU-145; 10.9 µM (inactive) with EKVX; 14.3 µM (inactive) in the experiment with Hs-578T; 6.03 µM (inactive) in the experiment on HT-29; 12.8 µM (inactive) with NCI-H226. Further, the figures for the GI50 in the experiment on SK-MEL-28 and with RPMI-8226 were 12.3 µM (inactive) and 4.07 µM (inactive), respectively.

`O=[As]O`: the GI50 was > 100 µM (inactive) in the experiment on NCI-H460; > 45.7 µM (inactive) in the experiment with OVCAR-3; > 56.1 µM (inactive) with CAKI-1; > 41.6 µM (inactive) with HOP-92; 41.3 µM (inactive) in the experiment on BT-549; > 100 µM (inactive) in the experiment with KM12. In addition, the GI50 was > 48.6 µM (inactive) with UACC-257; > 100 µM (inactive) in the experiment on A549; > 100 µM (inactive) with PC-3; > 100 µM (inactive) in the experiment with UO-31; > 100 µM (inactive) with HCC 2998; 15.6 µM (inactive) in the experiment with CCRF-CEM. Besides, the GI50 was 18.9 µM (inactive) in the experiment with SR; > 100 µM (inactive) with DU-145; > 60 µM (inactive) in the experiment on EKVX; > 100 µM (inactive) in the experiment on Hs-578T; > 66.2 µM (inactive) with HT-29; > 48.3 µM (inactive) with NCI-H226. Moreover, the GI50 was > 59 µM (inactive) in the experiment on SK-MEL-28 and > 40.5 µM (inactive) in the experiment on RPMI-8226.

Turning to `CCc1ccc(/C=C\c2cc(OC)c(OC)c(OC)c2)cc1`, the GI50 with NCI-H460 is 0.0235 µM (active); in the experiment on OVCAR-3, 0.00843 µM (active); with CAKI-1, 0.038 µM (active); in the experiment on HOP-92, 0.00813 µM (active); with BT-549 it was 0.18 µM (active); in the experiment on KM12 it was 0.0452 µM (active). For the same molecule, the GI50 was 0.0268 µM (active) with UACC-257; 0.0223 µM (active) in the experiment with A549; 0.00325 µM (active) in the experiment with PC-3; 0.0355 µM (active) with UO-31; 0.0492 µM (active) in the experiment on HCC 2998; 0.00998 µM (active) in the experiment with CCRF-CEM. In addition, the GI50 in the experiment with SR is 0.00247 µM (active); with DU-145 it was 0.0303 µM (active); with EKVX, 0.887 µM (active); with Hs-578T, 0.00255 µM (active); in the experiment with HT-29 it was 0.00993 µM (active); in the experiment with NCI-H226, 0.024 µM (active). For the same molecule, the GI50 is 0.0627 µM (active) in the experiment with SK-MEL-28 and 0.0127 µM (active) in the experiment on RPMI-8226.
